Reference: paper PMC8901119 (Chemical Science, 2021)
“And” between values parts separate entries of the source, which are not always exact repeats. Equal entries are not always repeated.

What was measured:
Cathepsin L = target: T1, Cathepsin L (Homo sapiens, UniProt P07711); assay: Cathepsin L inhibition assay in MDA-MB-231 cells (Magic Red); type: cell-based; conditions: for Cathepsin Activity (%), single technical replicates: normalized to 0.5% DMSO + Magic Red control, biological replicates 1 and 2
T1 construct: host or cells: MDA-MB-231 cells
T1 sequence (P07711 114-333): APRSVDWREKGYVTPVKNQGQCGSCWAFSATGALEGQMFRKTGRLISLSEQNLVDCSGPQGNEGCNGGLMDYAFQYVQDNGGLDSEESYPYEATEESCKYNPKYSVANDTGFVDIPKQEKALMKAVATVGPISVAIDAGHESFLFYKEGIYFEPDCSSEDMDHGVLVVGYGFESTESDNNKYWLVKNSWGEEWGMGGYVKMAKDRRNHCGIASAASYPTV
Procedure: Phan et al. Electronic SupplementaryInformation
Cell Culture & Cathepsin L Inhibition Assays in MDA -MB-231 Cells
MDA-MB-231 cells (ATCC, #HBT-26) were seeded at 1 x 10^5/well in a black, 24-well, TC-treated plate (Corning). Cells were cultured in 400 µL media per well containing DMEM (Corning), 10% Fetal Bovine Serum (FBS; Atlanta Biologicals), and 1% Penicillin/Streptomycin (Gibco) at 37 °C in 5% CO2. After 48 hours, the cells in each well were treated with 400 µL fresh media containing either 0.5 % DMSO (sterile filtered; Sigma Aldrich), 20 µM SID 26681509 (a known Cts L inhibitor; Tocris), 10 µM E-64 (a known cell-permeable pan cathepsin inhibitor; Tocris), or 50 µM
RS1A. Cathepsin L activity in MDA-MB-231 cells were then evaluated using ICT’s Magic Red TM cathepsin-L substrate, MR-(FR) 2, according to the manufacturer’s protocol (Immunochemistry Technologies, LLC). After incubating the cells for 24 hours in the experimental conditions, 16 µL sterile Milli-Q H 2O (for the unstained cell controls) or 16 µL 26X Magic Red staining solution was added to each well, and the 24-well plate was covered with foil for 60 minutes in a 37°C incubator with 5% CO2. The media was removed from the cell monolayer surface and the cells were rinsed Dulbecco’s phosphate-buffered saline containing Mg 2+ and Ca2+ (DPBS; Corning) (2 x 500 µL DPBS/well with 1 min/rinse). The cells were then immediately visualized at 20X magnification with an Olympus CKX53 microscope with a Reflected Light Fluorescence Illuminator equipped with a green 530-550 nm exciter filler, 570 nm dichroic mirror , and a long pass 575 nm emission/barrier filter. Images were taken by Olympus EP50 camera via the Olympic EP app on an iPhone XR. Positive cells stained with Magic Red would appear red with more brightly stained vacuoles and lysosomes. […]
Cell fluorescence from raw images was analyzed using ImageJ -Fiji. The color images were first split into RGB channels; all Red-channel images were then quantified for integrated fluorescence density across the entire images at the same threshold. […]

Cts L = tested on: Cts L; parameters: method as in earlier work; conditions: 10 µM, 24-hour treatment; ref 20 (ESI); cited from earlier work
SARS-CoV-2 pseudovirus = tested on: SARS-CoV-2 pseudovirus; parameters: method as in PMID 32221306; conditions: HEK 293/hACE2 cells; cited from earlier work

Compound | Reduction of Cts L activity in MDA-MB-231 cells (Cathepsin L; 10 µM, 24 hours) | Cathepsin Activity (%), single technical replicates (Cathepsin L; 10 uM, 10 µM) | Reduction of Cts L activity in MDA-MB-231 cells (Cts L) | Cathepsin Activity (%), single technical replicates (Cathepsin L; 20 uM, listed as SID, 20 µM) | Decrease of SARS-CoV-2 pseudovirus entry (SARS-CoV-2 pseudovirus)
CC(C)C[C@H](NC(=O)[C@H]1O[C@@H]1C(=O)O)C(=O)NCCCCN=C(N)N [E-64] | 32% | 74.2204% and 67.3402% and 72.3857% and 56.9211% and 49.1973% and 90.0663% | 30-40% |  | 
CCc1ccccc1NC(=O)CSC(=O)NNC(=O)[C@H](Cc1c[nH]c2ccccc12)NC(=O)OC(C)(C)C [SID 26681509] |  |  |  | 93.8537% and 84.7857% and 75.9763% and 71.3834% and 62.7105% and 65.0709% | more than 76%
